In brackets after ≈: the same amount, converted by molar mass.
How the values were obtained:
HepG2 [1] = test: Antiproliferative activity against human HepG2 cells assessed as cell growth inhibition at 1 uM measured after 72 hrs by MTT assay relative to control; assay type: functional; settings: read-out: GI
HepG2 [2] = test: Antiproliferative activity against human HepG2 cells measured after 72 hrs by MTT assay; assay type: functional, cell-based; settings: HepG2, 72 h
Bel-7402 = test: Antiproliferative activity against human Bel-7402 cells measured after 72 hrs by MTT assay; assay type: functional, cell-based; settings: Bel-7402, 72 h
HeLa = test: Antiproliferative activity against human HeLa cells measured after 72 hrs by MTT assay; assay type: functional, cell-based
ECa-109 cell line = test: Antiproliferative activity against human Eca-109 cells measured after 72 hrs by MTT assay; assay type: functional, cell-based; settings: ECa-109, 72 h
PANC-1 = test: Antiproliferative activity against human PANC-1 cells measured after 72 hrs by MTT assay; assay type: functional, cell-based; settings: PANC-1, 72 h
[3] = Cytotoxicity against human L02 cells measured after 72 hrs by MTT assay; assay type: toxicity, cell-based
[4] = Selectivity index, ratio of IC50 for human L02 cells to IC50 for human HepG2 cells; assay type: toxicity; settings: L02 cells and HepG2 cells, read-out: Ratio IC50
[5] = Solubility of the compound in 5% DMSO and 10% Solutol HS-15 saline solution; assay type: physicochemical

IC50 (HepG2 [2]) | IC50 (Bel-7402) | IC50 (HeLa) | IC50 (PANC-1) | SMILES | inhibition of growth at 1 µM (HepG2 [1]) | IC50 (ECa-109 cell line) | IC50 at 72 h [3] | selectivity ratio [4] | solubility [5]
1500 nM | 970 nM | 1310 nM | 350 nM | Cc1ccc(/C=C/C(=O)O[C@@H]2/C=C/C(=O)O[C@@H](C)CCC/C=C/[C@@H]3C[C@H](O)C[C@H]32)cc1 | 64% | 3590 nM |  |  | 
 |  |  |  | C[C@H]1CCC/C=C/[C@@H]2C[C@H](OC(=O)/C=C/c3ccccc3)C[C@H]2[C@H](OC(=O)/C=C/c2ccccc2)/C=C/C(=O)O1 | 20.4% |  |  |  | 
1020 nM | 1060 nM | 1050 nM | 1000 nM | C[C@H]1CCC/C=C/[C@@H]2C[C@H](O)C[C@H]2[C@H](OC(=O)/C=C/c2ccccc2F)/C=C/C(=O)O1 | 58.3% | 1660 nM |  |  | 
980 nM | 1040 nM | 3960 nM | 670 nM | C[C@H]1CCC/C=C/[C@@H]2C[C@H](OC(=O)/C=C/c3ccc(F)cc3)C[C@H]2[C@H](O)/C=C/C(=O)O1 | 69.7% | 2860 nM |  |  | 
730 nM | 640 nM | 800 nM | 470 nM | C[C@H]1CCC/C=C/[C@@H]2C[C@H](O)C[C@H]2[C@H](OC(=O)/C=C/c2cccc(Cl)c2)/C=C/C(=O)O1 | 77.4% | 740 nM |  |  | 
 |  |  |  | C[C@H]1CCC/C=C/[C@@H]2C[C@H](OC(=O)/C=C/c3ccc(C(F)(F)F)cc3)C[C@H]2[C@H](OC(=O)/C=C/c2ccc(C(F)(F)F)cc2)/C=C/C(=O)O1 | 4.3% |  |  |  | 
 |  |  |  | C[C@H]1CCC/C=C/[C@@H]2C[C@H](OC(=O)/C=C/c3cccc(F)c3)C[C@H]2[C@H](OC(=O)/C=C/c2cccc(F)c2)/C=C/C(=O)O1 | 6.3% |  |  |  | 
1350 nM | 1070 nM | 1650 nM | 870 nM | C[C@H]1CCC/C=C/[C@@H]2C[C@H](O)C[C@H]2[C@H](OC(=O)/C=C/c2ccc3c(c2)OCO3)/C=C/C(=O)O1 | 54.5% | 2200 nM |  |  | 
 |  |  |  | Cc1ccccc1/C=C/C(=O)O[C@@H]1C[C@@H]2[C@H](/C=C/CCC[C@H](C)OC(=O)/C=C/[C@H]2OC(=O)/C=C/c2ccccc2C)C1 | 1.7% |  |  |  | 
410 nM | 890 nM | 570 nM | 280 nM | C[C@H]1CCC/C=C/[C@@H]2C[C@H](OC(=O)/C=C/c3ccccc3Br)C[C@H]2[C@H](O)/C=C/C(=O)O1 | 70.5% | 500 nM |  |  | 
1020 nM | 790 nM | 750 nM | 570 nM | C[C@H]1CCC/C=C/[C@@H]2C[C@H](O)C[C@H]2[C@H](OC(=O)/C=C/c2ccc(F)cc2)/C=C/C(=O)O1 | 62% | 1140 nM |  |  | 
 |  |  |  | Cc1cccc(/C=C/C(=O)O[C@@H]2C[C@@H]3[C@H](/C=C/CCC[C@H](C)OC(=O)/C=C/[C@H]3OC(=O)/C=C/c3cccc(C)c3)C2)c1 | 6% |  |  |  | 
 |  |  |  | COc1cc(/C=C/C(=O)O[C@@H]2C[C@H]3[C@H](O)/C=C/C(=O)O[C@@H](C)CCC/C=C/[C@@H]3C2)cc(OC)c1OC | 4.2% |  |  |  | 
1860 nM | 1770 nM | 750 nM | 630 nM | Cc1ccccc1/C=C/C(=O)O[C@@H]1/C=C/C(=O)O[C@@H](C)CCC/C=C/[C@@H]2C[C@H](O)C[C@H]21 | 37.1% | 2680 nM |  |  | 
 |  |  |  | C[C@H]1CCC/C=C/[C@@H]2C[C@H](OC(=O)/C=C/c3ccccc3F)C[C@H]2[C@H](OC(=O)/C=C/c2ccccc2F)/C=C/C(=O)O1 | 8.4% |  |  |  | 
 |  |  |  | C[C@H]1CCC/C=C/[C@@H]2C[C@H](OC(=O)/C=C/c3ccc4c(c3)OCO4)C[C@H]2[C@H](O)/C=C/C(=O)O1 | 3.7% |  |  |  | 
 |  |  |  | C[C@H]1CCC/C=C/[C@@H]2C[C@H](OC(=O)/C=C/c3ccc(F)cc3)C[C@H]2[C@H](OC(=O)/C=C/c2ccc(F)cc2)/C=C/C(=O)O1 | 8.1% |  |  |  | 
1890 nM | 3290 nM | 1120 nM | 360 nM | Cc1cccc(/C=C/C(=O)O[C@@H]2C[C@H]3[C@H](O)/C=C/C(=O)O[C@@H](C)CCC/C=C/[C@@H]3C2)c1 | 34.7% | 2100 nM |  |  | 
420 nM | 450 nM | 460 nM | 460 nM | C[C@H]1CCC/C=C/[C@@H]2C[C@H](OC(=O)/C=C/c3ccc(C(F)(F)F)cc3)C[C@H]2[C@H](O)/C=C/C(=O)O1 | 86.7% | 550 nM |  |  | 
510 nM | 610 nM | 340 nM | 580 nM | C[C@H]1CCC/C=C/[C@@H]2C[C@H](O)C[C@H]2[C@H](OC(=O)/C=C/c2ccc(C(F)(F)F)cc2)/C=C/C(=O)O1 | 74.9% | 600 nM |  |  | 
480 nM | 820 nM | 2790 nM | 860 nM | C[C@H]1CCC/C=C/[C@@H]2C[C@H](OC(=O)/C=C/c3ccccc3F)C[C@H]2[C@H](O)/C=C/C(=O)O1 | 71.1% | 2420 nM |  |  | 
 |  |  |  | C[C@H]1CCC/C=C/[C@@H]2C[C@H](OC(=O)/C=C/c3ccc4c(c3)OCO4)C[C@H]2[C@H](OC(=O)/C=C/c2ccc3c(c2)OCO3)/C=C/C(=O)O1 | 4.3% |  |  |  | 
 |  |  |  | Cc1ccc(/C=C/C(=O)O[C@@H]2C[C@@H]3[C@H](/C=C/CCC[C@H](C)OC(=O)/C=C/[C@H]3OC(=O)/C=C/c3ccc(C)cc3)C2)cc1 | 5.2% |  |  |  | 
 |  |  |  | C[C@H]1CCC/C=C/[C@@H]2C[C@H](OC(=O)/C=C/c3ccccc3Br)C[C@H]2[C@H](OC(=O)/C=C/c2ccccc2Br)/C=C/C(=O)O1 | 3.1% |  |  |  | 
 |  |  |  | COc1cc(/C=C/C(=O)O[C@@H]2C[C@@H]3[C@H](/C=C/CCC[C@H](C)OC(=O)/C=C/[C@H]3OC(=O)/C=C/c3ccc(OCc4ccccc4)c(OC)c3)C2)ccc1OCc1ccccc1 | 2.7% |  |  |  | 
 |  |  |  | C[C@H]1CCC/C=C/[C@@H]2C[C@H](OC(=O)/C=C/c3ccc(N(C)C)cc3)C[C@H]2[C@H](O)/C=C/C(=O)O1 | 47% |  |  |  | 
 |  |  |  | C[C@H]1CCC/C=C/[C@@H]2C[C@H](OC(=O)/C=C/c3cccc(Cl)c3)C[C@H]2[C@H](OC(=O)/C=C/c2cccc(Cl)c2)/C=C/C(=O)O1 | 6.4% |  |  |  | 
560 nM | 750 nM | 870 nM | 370 nM | Cc1cccc(/C=C/C(=O)O[C@@H]2/C=C/C(=O)O[C@@H](C)CCC/C=C/[C@@H]3C[C@H](O)C[C@H]32)c1 | 77.8% | 1090 nM |  |  | 
890 nM | 720 nM | 1100 nM | 660 nM | C[C@H]1CCC/C=C/[C@@H]2C[C@H](OC(=O)/C=C/c3cccc(Cl)c3)C[C@H]2[C@H](O)/C=C/C(=O)O1 | 68.1% | 1450 nM |  |  | 
520 nM | 640 nM | 740 nM | 510 nM | C[C@H]1CCC/C=C/[C@@H]2C[C@H](O)C[C@H]2[C@H](OC(=O)/C=C/c2ccccc2Br)/C=C/C(=O)O1 | 72.5% | 1140 nM |  |  | 

SMILES | IC50 (HepG2 [2]) | IC50 (Bel-7402) | IC50 (HeLa) | IC50 (PANC-1) | inhibition of growth at 1 µM (HepG2 [1]) | IC50 (ECa-109 cell line) | IC50 at 72 h [3] | selectivity ratio [4] | solubility [5]
Cc1ccccc1/C=C/C(=O)O[C@@H]1C[C@H]2[C@H](O)/C=C/C(=O)O[C@@H](C)CCC/C=C/[C@@H]2C1 | 2980 nM | 2320 nM | > 4000 nM | 2790 nM | 28.9% | > 4000 nM |  |  | 
COc1cc(/C=C/C(=O)O[C@@H]2/C=C/C(=O)O[C@@H](C)CCC/C=C/[C@@H]3C[C@H](O)C[C@H]32)cc(OC)c1OC | 720 nM | 1370 nM | 1580 nM | 820 nM | 65.1% | 2100 nM |  |  | 
C[C@H]1CCC/C=C/[C@@H]2C[C@H](OC(=O)/C=C/c3ccccc3)C[C@H]2[C@H](O)/C=C/C(=O)O1 | 1250 nM | 1110 nM | 530 nM | 570 nM | 62.9% | 1210 nM |  |  | 
C[C@H]1CCC/C=C/[C@@H]2C[C@H](O)C[C@H]2[C@H](O)/C=C/C(=O)O1 [BREFELDIN A] | 180 nM | 170 nM | 70 nM | 80 nM | 94.4% | 140 nM | 100 nM | 0.56 | 1000 µg/mL (≈ 3.57 mM)
C[C@H]1CCC/C=C/[C@@H]2C[C@H](O)C[C@H]2[C@H](OC(=O)/C=C/c2ccccc2)/C=C/C(=O)O1 | 570 nM | 970 nM | 1170 nM | 420 nM | 64.7% | 1120 nM |  |  | 
C[C@H]1CCC/C=C/[C@@H]2C[C@H](O)C[C@H]2[C@H](OC(=O)/C=C/c2cccc(F)c2)/C=C/C(=O)O1 | 490 nM | 810 nM | 700 nM | 360 nM | 68.3% | 950 nM |  |  | 
C[C@H]1CCC/C=C/[C@@H]2C[C@H](OC(=O)/C=C/c3cccc(F)c3)C[C@H]2[C@H](O)/C=C/C(=O)O1 | 450 nM | 920 nM | 2740 nM | 610 nM | 71.1% | 2140 nM |  |  | 
Cc1ccc(/C=C/C(=O)O[C@@H]2C[C@H]3[C@H](O)/C=C/C(=O)O[C@@H](C)CCC/C=C/[C@@H]3C2)cc1 | 2870 nM | 2140 nM | 1910 nM | 1350 nM | 30.8% | 12500 nM |  |  | 

— ChEMBL document CHEMBL5113500, “New brefeldin A-cinnamic acid ester derivatives as potential antitumor agents: Design, synthesis and biological evaluation” (Eur J Med Chem, 2022)
